From patent US20220401514A1, “ANTIMICROBIAL, BACTERIOPHAGE-DERIVED POLYPEPTIDES AND THEIR USE AGAINST GRAM-NEGATIVE AND ACID-FAST BACTERIA” (CONTRAFECT CORPORATION, priority 2019, published 2022)
In brackets after ≈: the same amount, converted by molar mass. Like-named read-outs stand apart in the source and are kept apart here.

Assays:
[1] = test system: P. aeruginosa strain CFS-1292; experiment: Checkerboard assay (FICI) with antibiotics, P. aeruginosa; assay type: cell-based, Pseudomonas aeruginosa; conditions: for FICI: CAA + […] human serum
In short: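 Antibiotic diluted 2-fold along one plate axis against Chp peptide; bacteria added at 1×10^5 […] in CAA, optionally with human serum or pulmonary surfactant.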

[2] = test system: Acinetobacter baumannii strain 30; experiment: Checkerboard assay (FICI) with antibiotics, A. baumannii; assay type: cell-based; conditions: checkerboard
M. avium = experiment: 45 hr MIC against M. avium (NTM); assay type: cell-based, Mycobacterium avium; conditions: M. avium Chester ATCC 700898
[3] = test system: P. aeruginosa strain CFS 1292; assay type: cell-based, Pseudomonas aeruginosa; conditions: serial passage
P. aeruginosa (CFS 1292) = experiment: microbe, parasite or virus in culture; assay type: cell-based, Pseudomonas aeruginosa; conditions: Pseudomonas aeruginosa
S. maltophilia = experiment: MIC against S. maltophilia isolates; assay type: cell-based, Stenotrophomonas maltophilia; conditions: for MIC50 / MIC100 / MIC Range: S. maltophilia isolates (n per peptide in table)
In short: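 MIC in μg/mL for Chp peptides across several S. maltophilia isolates, n denoting the number of isolates tested.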

[4] = Stability assessment in 100% CAA; assay type: in vitro ADME; set-up: unit not given beside the values
Experimental: Stability was assessed after incubation in 100% human serum at 37° C. after 10 minutes, 1 hour, and 2 hours.
Stability assessment was further conducted in 100% CAA and rabbit serum using the same methodology discussed above.

[5] = test system: P. aeruginosa strain PAO1; experiment: MIC against PAO1 in Mueller-Hinton broth with 50% human plasma or human serum; assay type: cell-based, Pseudomonas aeruginosa
[6] = test system: mature biofilms formed by P. aeruginosa strain ATCC 17647; experiment: Minimal Biofilm Eradicating Concentration (MBEC), Calgary Biofilm Device, crystal violet; assay type: cell-based, Pseudomonas aeruginosa
Experimental: Biofilms are then washed and treated with e.g., a 2-fold dilution series of the lysin in TSBg at e.g., 37° C. for 24 hours. After treatment, wells are washed, air-dried at e.g., 37° C. and stained with e.g., 0.05% crystal violet for 10 minutes.
Determination of Minimal Biofilm Eradicating Concentrations (MBEC). […] Biofilms were washed and treated with a 2-fold dilution series of each peptide in TSBg at 37° C. for 16 hours. […] The OD600 of extracted crystal violet was determined.

NC[C@H]1O[C@H](O[C@H]2[C@H](O)[C@@H](O[C@H]3O[C@H](CO)[C@@H](O)[C@H](N)[C@H]3O)[C@H](N)C[C@@H]2N)[C@H](N)C[C@@H]1O [tobramycin, reference compound]
Antibiotic FIC ([1]; combined with Chp2-M1, P. aeruginosa CFS-1292): 0.25
Antibiotic FIC ([1]; combined with Chp2, P. aeruginosa CFS-1292): 0.25
Antibiotic FIC ([1]; combined with Chp4-M1, P. aeruginosa CFS-1292): 0.25
Antibiotic FIC ([1]; combined with Chp6-M1, P. aeruginosa CFS-1292): 0.25
Antibiotic FIC ([1]; combined with Chp10-M1, P. aeruginosa CFS-1292): 0.25
Antibiotic FIC ([1]; combined with Unp2-M1, P. aeruginosa CFS-1292): 0.25
Antibiotic FIC ([2]; in combination with Chp2): 0.125
Antibiotic MIC ([2]; in combination with Chp2): 0.01562 µg/mL
Antibiotic FIC ([2]; in combination with Chp2-M1): 0.25
Antibiotic MIC ([2]; in combination with Chp2-M1): 0.01562 µg/mL
Antibiotic FIC ([2]; in combination with Chp4-M1): 0.5
Antibiotic FIC ([2]; in combination with Chp6-M1): 0.25
Antibiotic MIC ([2]; in combination with Chp6-M1): 0.01562 µg/mL
Antibiotic FIC ([2]; in combination with Chp10-M1): 0.25
Antibiotic MIC ([2]; in combination with Chp10-M1): 0.01562 µg/mL
Antibiotic FIC ([2]; in combination with Unp2-M1): 0.25
Antibiotic MIC ([2]; in combination with Unp2-M1): 0.01562 µg/mL
MIC (M. avium; Mycobacterium avium, ATCC700898, 45 h, read-out: 45 hr MIC): 0.125 µg/mL (≈ 0.267 µM)
change in MIC after 21 days [3]: significant increases
MIC (P. aeruginosa (CFS 1292); read-out: MIC Center): 0.5 µg/mL (≈ 1.07 µM)
MIC (P. aeruginosa (CFS 1292); read-out: MIC Periphery): 0.5 µg/mL (≈ 1.07 µM)

MARRRYRLPRRRSRRLFSRTALRMHPRNRLRRIMRGGIRF [Chp6]
MIC50 (S. maltophilia): 0.5 µg/mL
MIC100 (S. maltophilia): 1 µg/mL
MIC Range (S. maltophilia): 0.25 to 1 µg/mL
activity against S. maltophilia (S. maltophilia; Table 45 isolates): active
MIC (100% CAA) [4]: 0.25
45 hr MIC (M. avium): 1 µg/mL

MARRYRLSRRRSRRLFSRTALRMHRRNRLRRIMRGGIRF [Chp4]
MIC [5]: 2 µg/mL
Minimal inhibitory concentration, Human Serum [5]: 2 µg/mL
MIC50 (S. maltophilia): 0.5 µg/mL
MIC100 (S. maltophilia): 2 µg/mL
MIC Range (S. maltophilia): 0.5 to 8 µg/mL
MBEC ([6]; MBEC assay format, summary statement, strain not stated there): 0.25 µg/mL
MBEC ([6]; P. aeruginosa ATCC 17647 mature biofilm, tryptic soy broth with 2% glucose): 0.25 µg/mL
interaction between the Chp peptide and the antibiotic (FICI values) ([1]; P. aeruginosa CFS-1292, range of antibiotics): either synergy (i.e., ≤0.5) or strongly additive (i.e., >0.5-1)
FICI ([1]; combination with Amikacin): 0.500
FICI ([1]; combination with Azithromycin): 0.156
FICI ([1]; combination with Aztreonam): 0.375
FICI ([1]; combination with Ciprofloxacin): 0.375
FICI ([1]; combination with Colistin): 0.375
FICI ([1]; combination with Fosfomycin): 0.250
FICI ([1]; combination with Gentamicin): 0.250
FICI ([1]; combination with Imipenem): 0.375
FICI ([1]; combination with Piperacillin): 0.188
FICI ([1]; combination with Rifampicin): 0.750
FICI ([1]; combination with Tobramycin): 0.266
MIC (100% CAA) [4]: 0.25
45 hr MIC (M. avium): 1 µg/mL

MVRRRRLRRRISRRIFRRTVARVGRRRRSFRGGIRF [Chp1]
MIC50 (S. maltophilia): 2 µg/mL
MIC100 (S. maltophilia): 4 µg/mL
MIC Range (S. maltophilia): 1 to 8 µg/mL
MIC (100% CAA) [4]: 0.5
45 hr MIC (M. avium): 4 µg/mL
